We go through 68 molecules from ChEMBL document CHEMBL3301448, “MMV Malaria Box screening against Toxoplasma gondii and Entamoeba histolytica”.

One assay concerns Entamoeba histolytica. The experiment in a line: MMV: Primary screening was performed with each compound at a 30 uM final concentration and in triplicate in sealed 96-well polystyrene microtiter plates. Parasite inocula (100 ul) comprising 20000 parasites/ml were added to each well and grown at 37 degrees C in a humidified atmosphere of 5% CO2 for 72 h. Positive controls consisted of metronidazole at 1 mg/ml. The growth of E. histolytica trophozoites in each well was determined microscopically by measuring the diameters of the confluent cells in drug-containing wells relative to those in the nega- tive-control wells. Format: functional, organism-based.

A further assay relates to Toxoplasma gondii. Kind of assay: MMV: A total of 100ul of inoculum was added to each well (parasite/cell ratio, ~10:1; final volume, 200 ul). Six hours after inoculation, nonadherent parasites were removed, and 100 ul of complete DMEM (1% penicillin-streptomycin, 3% FBS) supplemented with inhibitors at different concentrations (2-fold serial dilutions starting from 30 uM) was added to all except the negative-control wells. Positive controls, consisting of pyrimethamine (PYR) and sulfadiazine (SDZ) (20-mg/ml stocks in DMSO), were tested at a 2mg/ml final concentration. Each test was performed in triplicate. Format: functional, organism-based. The conditions noted are these: 6 h.

Consider `O=C(Nc1ccc(Cl)cc1)N1CCN(c2ccc3nncn3n2)CC1`, for which the IC50 with Entamoeba histolytica and in the assay on Toxoplasma gondii was above 30 µM in each case.

Take `CCc1ccc(Nc2cc(C)nc3nc(C)nn23)cc1`: the IC50 in the assay on Entamoeba histolytica and in the assay with Toxoplasma gondii was above 30 µM each time.

Turning to `COc1ccc(Nc2nc(N/N=C/c3ccc(O)cc3)nc(Nc3ccc([N+](=O)[O-])cc3)n2)cc1`, the IC50 in the assay on Entamoeba histolytica and with Toxoplasma gondii was above 30 µM each time.

Turning to `OC(Cn1nnc2ccccc21)Cn1c2ccc(Br)cc2c2cc(Br)ccc21` (stereo unspecified), the IC50 in the assay with Entamoeba histolytica and with Toxoplasma gondii was above 30 µM in each case.

For `Brc1ccc(Nc2nc3ccccc3nc2Nc2ccc(Br)cc2)cc1`, the IC50 in the assay with Entamoeba histolytica and with Toxoplasma gondii was above 30 µM throughout.

In the case of `COc1ccc(C2c3ccc4ccccc4c3Oc3ncn(CCCn4ccnc4)c(=N)c32)cc1OC` (stereo unspecified), the IC50 with Entamoeba histolytica and in the assay with Toxoplasma gondii was above 30 µM in each case.

On to `CCOC(=O)C1=C(c2ccccc2)N=c2sc(=Cc3cc(C)n(-c4ccc(F)cc4)c3C)c(=O)n2C1c1cccc(OC)c1OC` (stereo unspecified), for which the IC50 with Entamoeba histolytica and in the assay with Toxoplasma gondii was above 30 µM in each case.

Consider `CCN(CC)CCNc1ncnc2c1[nH]c1ccc(Cl)cc12`, for which the IC50 in the assay with Entamoeba histolytica and with Toxoplasma gondii was above 30 µM in each case.

As for `COc1cccc(O)c1CN1CCC2(CCCN(Cc3ccc(F)cc3)C2)C1` (stereo unspecified), the IC50 in the assay with Entamoeba histolytica and in the assay on Toxoplasma gondii was above 30 µM in each case.

Take `CC(C)OCc1cc(CN2CCN(c3cccc(Cl)c3)CC2)c(O)c2ncccc12`: the IC50 in the assay with Entamoeba histolytica and in the assay with Toxoplasma gondii was above 30 µM in each case.

Take `COc1ccc2nc(C)cc(Nc3cccc(O)c3)c2c1`: the IC50 in the assay on Entamoeba histolytica and in the assay on Toxoplasma gondii was above 30 µM in each case.

`CCOc1cc(Cl)c(C(C)NC(=O)c2cccc(OC)c2)cc1OCC` (stereo unspecified): the IC50 in the assay on Entamoeba histolytica and in the assay on Toxoplasma gondii was above 30 µM each time.

Consider `CSC1=NC(=Nc2c(C)cccc2C)C2(CCC(C(C)(C)C)CC2)N1c1ccc(Cl)cc1` (stereo unspecified), for which the IC50 with Entamoeba histolytica and with Toxoplasma gondii was above 30 µM each time.

`CCOc1cc(Cl)c(C(C)NC(=O)c2ccccc2)cc1OCC` (stereo unspecified): the half-maximal inhibitory concentration (IC50) with Entamoeba histolytica and in the assay on Toxoplasma gondii was above 30 µM each time.

As to `COc1cc(CNCCc2ccc(Cl)cc2)cc(OC)c1O`, the IC50 in the assay with Entamoeba histolytica and in the assay on Toxoplasma gondii was above 30 µM in each case.

Take `CCCCCCc1cc(O)c2c3c(c(=O)oc2c1)CCC(C)C3` (stereo unspecified): the IC50 in the assay on Entamoeba histolytica and in the assay with Toxoplasma gondii was above 30 µM throughout.

Consider `Oc1ccc(Cl)cc1CNc1nc2ccccc2[nH]1`, for which the results for the IC50 in the assay with Entamoeba histolytica and in the assay with Toxoplasma gondii were above 30 µM and 26.8 µM, respectively.

For the molecule `Cc1ccc(C)c(-c2csc(Nc3ccc(C)c(C)c3)n2)c1`, the IC50 in the assay on Entamoeba histolytica and in the assay on Toxoplasma gondii was above 30 µM each time.

As to `COc1ccccc1CNC(=O)CCn1c(=O)[nH]c2ccsc2c1=O`, the IC50 – broadly, the concentration that inhibits the measured activity by half – is above 30 µM in the assay with Entamoeba histolytica and 20.9 µM in the assay with Toxoplasma gondii.

With `Cc1cc(NC(=O)c2ccc(-c3ccccc3)cc2)no1`, the IC50 with Entamoeba histolytica is above 30 µM; in the assay on Toxoplasma gondii, 21.1 µM.

As to `CN(C)CCCNCc1ccc(-c2ccc(F)c(Cl)c2)o1`, the IC50 in the assay with Entamoeba histolytica and in the assay with Toxoplasma gondii was above 30 µM each time.

Turning to `Cc1ccc(Nc2nc(-c3ccccn3)cs2)cc1`, the IC50 with Entamoeba histolytica and with Toxoplasma gondii was above 30 µM each time.

For the molecule `COc1ccc2c(c1)OC(O)(C(F)(F)C(F)(F)F)CC2=O` (stereo unspecified), the IC50 in the assay with Entamoeba histolytica and with Toxoplasma gondii was above 30 µM throughout.

Regarding `O=C(Nc1cccc(-c2nc3ccccc3[nH]2)c1)c1cccc(NC(=O)c2ccco2)c1`, the IC50 in the assay on Entamoeba histolytica and with Toxoplasma gondii was above 30 µM in each case.

With `CCCCCCC(O)(c1ccc(F)cc1)C(CN1CCOCC1)c1ccccc1` (stereo unspecified), the half-maximal inhibitory concentration (IC50) with Entamoeba histolytica and in the assay on Toxoplasma gondii was above 30 µM in each case.

As to `CN1C=C(c2ccc3ccccc3n2)C(c2c[nH]c3ccccc23)c2ccccc21` (stereo unspecified), the IC50 in the assay on Entamoeba histolytica and with Toxoplasma gondii was above 30 µM throughout.

As to `COc1ccccc1CNC(=O)CCn1c(=O)[nH]c2ccccc2c1=O`, the IC50 in the assay with Entamoeba histolytica and in the assay with Toxoplasma gondii was above 30 µM throughout.

As to `COc1ccc(-c2nonc2NC(=O)c2cccc(C)c2)cc1OC`, the IC50 in the assay with Entamoeba histolytica and in the assay on Toxoplasma gondii was above 30 µM throughout.

On to `CCCc1c(C)nc2ccc(Br)cc2c1O`, for which the IC50 in the assay with Entamoeba histolytica and in the assay on Toxoplasma gondii was above 30 µM in each case.

On to `COc1cc(OC)c(N(C)C(=O)c2cc3c(s2)-c2ccccc2S(=O)(=O)C3)cc1Cl`, for which the IC50 in the assay on Entamoeba histolytica and in the assay with Toxoplasma gondii was above 30 µM in each case.

For `COc1ccc(C2NCCc3c2[nH]c2ccccc32)cc1CN1CCN(c2ccc(F)cc2)CC1` (stereo unspecified), the concentration for half-maximal inhibition (IC50) in the assay on Entamoeba histolytica and in the assay on Toxoplasma gondii was above 30 µM throughout.

Consider `CCN(CC)CCCNc1nc(-c2ccc(Cl)cc2)nc2ccccc12`, for which the IC50 with Entamoeba histolytica and with Toxoplasma gondii was above 30 µM throughout.

On to `COc1cc(C(=O)ON=C(N)Cc2cccc3ccccc23)cc(OC)c1OC`, for which the IC50 with Entamoeba histolytica and with Toxoplasma gondii was above 30 µM each time.

As for `COc1cccc(Cn2c(Oc3ccccc3)nc3c2c(=O)n(C)c(=O)n3C)c1`, the IC50 in the assay with Entamoeba histolytica and in the assay with Toxoplasma gondii was above 30 µM throughout.

In the case of `O=C(Nc1ccc(N2CCCCC2)c(Cl)c1)c1ccc(Br)o1`, the IC50 in the assay with Entamoeba histolytica and with Toxoplasma gondii was above 30 µM in each case.

`CC(NCc1ccccc1)c1cc(Cl)ccc1O` (stereo unspecified): the results for the IC50 in the assay with Entamoeba histolytica and in the assay with Toxoplasma gondii were above 30 µM and 21.4 µM, respectively.

In the case of `COc1ccc(C(=O)C2CC2c2ccc(Cl)cc2)cc1` (stereo unspecified), the IC50 in the assay with Entamoeba histolytica and in the assay on Toxoplasma gondii was above 30 µM throughout.

Regarding `COc1ccc(CNC(=O)c2cc3c(=O)n4ccccc4nc3n(CCc3ccccc3)c2=N)cc1`, the IC50 in the assay with Entamoeba histolytica and in the assay with Toxoplasma gondii was above 30 µM each time.

For `Oc1ccc(Br)cc1CN1CCN(Cc2cccc(F)c2)CC1`, the IC50 in the assay with Entamoeba histolytica and in the assay on Toxoplasma gondii was above 30 µM in each case.

For the molecule `COc1ccc(-c2nc(N3CCN(C(=O)C4CCCCC4)CC3)c3c4c(sc3n2)CCCC4)cc1`, the IC50 in the assay with Entamoeba histolytica and with Toxoplasma gondii was above 30 µM throughout.

With `CCc1c(C)c(=N)c2ccccc2n1C`, the IC50 in the assay on Entamoeba histolytica and in the assay on Toxoplasma gondii was above 30 µM throughout.

On to `FC(F)(F)c1cccc(Nc2nc3ccccc3nc2Nc2cccc(C(F)(F)F)c2)c1`, for which the IC50 in the assay with Entamoeba histolytica and with Toxoplasma gondii was above 30 µM throughout.

Take `Cc1cccc(-n2ncc3c(O)nc(-n4nc(C)cc4NC(=O)c4cc5ccccc5o4)nc32)c1`: the IC50 with Entamoeba histolytica and with Toxoplasma gondii was above 30 µM in each case.

For `CCOc1cc2c(cc1OCC)C(c1cc(C)c(O)c(C)c1)NCC2` (stereo unspecified), the IC50 in the assay with Entamoeba histolytica was above 30 µM; with Toxoplasma gondii, 12.8 µM.

Consider `CCN(CC)CCNc1ncnc2c1[nH]c1ccc(Br)cc12`, for which the IC50 with Entamoeba histolytica and in the assay with Toxoplasma gondii was above 30 µM each time.

For `Oc1c2c(nc3cc(-c4ccccc4)nn13)CCCC2`, the IC50 was above 30 µM in the assay on Entamoeba histolytica and 26.2 µM in the assay with Toxoplasma gondii.

`COc1ccc(CCN2C(=O)c3[nH]nc(-c4cc(Cl)c(C)cc4O)c3C2c2ccccc2F)cc1` (stereo unspecified): the IC50 with Entamoeba histolytica and in the assay with Toxoplasma gondii was above 30 µM each time.

Consider `CCOc1c(Br)cc(C2C(C(=O)OC)=CN(C)C=C2C(=O)OC)cc1OC`, for which the IC50 with Entamoeba histolytica and in the assay on Toxoplasma gondii was above 30 µM each time.

As for `CN(C)c1ccc(-c2nc3cc(N)ccc3[nH]2)cc1`, the IC50 in the assay with Entamoeba histolytica and with Toxoplasma gondii was above 30 µM each time.

Turning to `Cc1ccccc1OCCSc1nc2ccc(NC(=O)c3cccs3)cc2s1`, the IC50 with Entamoeba histolytica and with Toxoplasma gondii was above 30 µM in each case.

Regarding `O=C(c1ccccc1F)N(Cc1ccc(Cl)cc1)c1ccccn1`, the IC50 with Entamoeba histolytica and in the assay with Toxoplasma gondii was above 30 µM throughout.

Regarding `COc1cc2cc(C(=O)Nc3ccccc3)c(N)nc2cc1OC`, the half-inhibitory concentration (IC50) in the assay with Entamoeba histolytica and in the assay on Toxoplasma gondii was above 30 µM each time.

As for `CC(Oc1ccc(NC(=O)c2cccs2)cc1)C(=O)c1ccc(Cl)cc1` (stereo unspecified), the IC50 with Entamoeba histolytica was above 30 µM; in the assay with Toxoplasma gondii, 10.5 µM.

On to `COc1ccc(C2=C(c3ccc(OC)cc3)C3(c4ccccc4)C(=O)C2(c2ccccc2)C2C(=O)N(c4ccc(C)cc4)C(=O)C23)cc1` (stereo unspecified), for which the IC50 in the assay with Entamoeba histolytica and with Toxoplasma gondii was above 30 µM throughout.

For `COc1ccc2c(c1OC)C(=O)N1c3ccccc3N=C(c3ccc(C)cc3)CC21` (stereo unspecified), the IC50 with Entamoeba histolytica and in the assay on Toxoplasma gondii was above 30 µM in each case.

For `CCC1(C)CC(CCNCc2ccccc2O)(c2ccc(C)cc2)CCO1` (stereo unspecified), the IC50 in the assay with Entamoeba histolytica and with Toxoplasma gondii was above 30 µM in each case.

On to `CC(C)(C)CC(C)(C)NCC(O)COc1ccc(Cl)cc1Cl` (stereo unspecified), for which the IC50 in the assay with Entamoeba histolytica and in the assay with Toxoplasma gondii was above 30 µM throughout.

For `CCOc1cccc2sc(N(Cc3cccnc3)C(=O)C3CCCCC3)nc12`, the IC50 with Entamoeba histolytica and with Toxoplasma gondii was above 30 µM each time.

With `Oc1ccccc1CN1CCN(C(c2ccccc2)c2ccccc2)CC1`, the IC50 with Entamoeba histolytica and with Toxoplasma gondii was above 30 µM in each case.

As for `CCn1nc(-c2ccc(C(=O)OC)cc2)nc2c(=O)n(C)c(=O)nc1-2`, the IC50 in the assay with Entamoeba histolytica and with Toxoplasma gondii was above 30 µM each time.

For `Cc1ccc(CN2CCC(C(=O)Nc3ccc(-c4cc5ccccc5[nH]4)cc3)CC2)o1`, the IC50 in the assay with Entamoeba histolytica and in the assay with Toxoplasma gondii was above 30 µM in each case.

Regarding `CCCCc1ccc(NS(=O)(=O)c2cc3c4c(c2)CCN4C(=O)CC3)cc1`, the IC50 in the assay on Entamoeba histolytica and in the assay with Toxoplasma gondii was above 30 µM each time.

Regarding `CC1CN(C(=O)c2sc3ccccc3c2Cl)CC(C)O1` (stereo unspecified), the IC50 in the assay with Entamoeba histolytica and in the assay with Toxoplasma gondii was above 30 µM each time.

For `Cc1cc(Nc2ccc3ccccc3c2)n2ncnc2n1`, the IC50 in the assay with Entamoeba histolytica and with Toxoplasma gondii was above 30 µM in each case.

Consider `Cc1ccc(OCCCCCCNCCO)c(C)c1`, for which the IC50 in the assay with Entamoeba histolytica and in the assay with Toxoplasma gondii was above 30 µM each time.

Turning to `Oc1ccccc1CNCC12CC3CC(CC(C3)C1)C2`, the IC50 with Entamoeba histolytica and in the assay with Toxoplasma gondii was above 30 µM each time.

Regarding `CCOc1ccccc1NC(=O)CN1CCN(C(=O)c2ccco2)CC1`, the results for the IC50 with Entamoeba histolytica and with Toxoplasma gondii were above 30 µM and 0.19 µM, respectively.

Regarding `COc1cccc(C=Cc2nc(=O)c3ccccc3o2)c1OC`, the IC50 in the assay with Entamoeba histolytica and in the assay with Toxoplasma gondii was above 30 µM each time.
